Measurements from US7238691B2, “Piperidine derivatives and their use as modulators of chemokine (especially CCR3) activity” (AstraZeneca AB, priority 2001, dated 2007).

Experiments:
human H1 receptor = target: T1, human H1 receptor (Homo sapiens, UniProt P35367); test: Histamine H1 receptor binding, competition displacement of [3H]-pyrilamine; settings: 1 nM [3H]-pyrilamine; membranes from recombinant CHO-K1 cells expressing the human H1 receptor; 1 hour at room temperature; read-out: H1 pKi/ [1328_S] (converted)
T1 construct: purchased Furoscreen S A, Brussels, Belgium (so in the source); host or cells: CHO-K1
T1 sequence (P35367 whole entry): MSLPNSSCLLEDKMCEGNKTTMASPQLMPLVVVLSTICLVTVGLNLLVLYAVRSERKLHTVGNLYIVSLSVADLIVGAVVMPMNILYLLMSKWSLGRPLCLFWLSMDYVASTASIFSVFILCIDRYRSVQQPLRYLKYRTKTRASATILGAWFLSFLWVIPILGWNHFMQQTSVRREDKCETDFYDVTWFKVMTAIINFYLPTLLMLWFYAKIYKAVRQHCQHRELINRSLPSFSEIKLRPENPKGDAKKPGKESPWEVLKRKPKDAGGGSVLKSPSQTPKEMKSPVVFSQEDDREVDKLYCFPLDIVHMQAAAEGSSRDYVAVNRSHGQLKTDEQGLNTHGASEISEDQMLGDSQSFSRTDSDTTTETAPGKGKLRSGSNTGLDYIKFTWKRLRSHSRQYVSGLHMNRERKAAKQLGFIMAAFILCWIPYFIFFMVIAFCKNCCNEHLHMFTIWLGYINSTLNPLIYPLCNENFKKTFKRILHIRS
Method: Histamine H1 receptor binding activity of compounds of the invention was assessed by competition displacement of 1 nM [3H]-pyrilamine (Amersham, Bucks, Product code TRK 608, specific activity 30Ci/mmol) to 2 μg membranes prepared from recombinant CHO-K1 cells expressing the human H1 receptor (Furoscreen S A, Brussels, Belgium, product code ES-390-M) in assay buffer (50 mM Tris pH 7.4 containing 2 mM MgCl2, 250 mM sucrose and 100 mM NaCl) for 1 hour at room temperature.

CCR3 = target: T2, CCR3 (Homo sapiens, UniProt P51677); test: Human eosinophil chemotaxis (eotaxin mediated); type: cell-based; settings: compound at 1 μM
T2 construct: Human eosinophils were isolated from EDTA anticoagulated peripheral blood; endogenous in cells; host or cells: human peripheral blood eosinophils
T2 sequence (P51677 1-355): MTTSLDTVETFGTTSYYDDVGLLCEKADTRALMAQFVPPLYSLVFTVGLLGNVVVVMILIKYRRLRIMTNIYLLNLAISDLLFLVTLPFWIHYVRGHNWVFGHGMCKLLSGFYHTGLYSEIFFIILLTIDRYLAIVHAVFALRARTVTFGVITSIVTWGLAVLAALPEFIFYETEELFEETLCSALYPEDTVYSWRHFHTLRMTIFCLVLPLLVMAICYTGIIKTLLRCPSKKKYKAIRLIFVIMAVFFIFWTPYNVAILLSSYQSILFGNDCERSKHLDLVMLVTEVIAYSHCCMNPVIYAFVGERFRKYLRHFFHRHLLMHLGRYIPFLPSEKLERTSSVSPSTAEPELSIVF
Method: Human Eosinophil Chemotaxis
Human eosinophils were isolated from EDTA anticoagulated peripheral blood as previously described (Hansel et al., J. Immunol. Methods, 1991, 145, 105-110). The cells were resuspended at 10×10^6 ml^−1 in RPMI containing 200 μg/ml penicillin, 200 μg/ml streptomycin sulfate and supplemented with 10% HIFCS, at room temperature.
Eosinophils (700 μl) were pre-incubated for 15 mins at 37° C. with 7 μl of either vehicle or compound (100× required final concentration in 10% DMSO). The chemotaxis plate (ChemoTx, 3 μm pore, Neuroprobe) was loaded by adding 28 μl of a concentration of eotaxin 0.1 to 100 nM (a selective CCR3 agonist over this concentration range) containing a concentration of a compound according to the Examples or solvent to the lower wells of the chemotaxis plate. The filter was then placed over the wells and 25 μl of eosinophil suspension were added to the top of the filter. The plate was incubated for 1 hr at 37° C. in a humidified incubator with a 95% air/5% CO2 atmosphere to allow chemotaxis.
The medium, containing cells that had not migrated, was carefully aspirated from above the filter and discarded. The filter was washed once with phosphate buffered saline (PBS) containing 5 mM EDTA to remove any adherent cells. […] The number of eosinophils migrating was quantified according to the method of Strath et al., J. Immunol. […]

Ki (human H1 receptor) [nM]	SMILES	inhibition at 1 µM (CCR3) [%]
100	CS(=O)(=O)c1cccc(C(=O)N2CCOC(CN3CCC(Oc4ccc(Cl)c(Cl)c4)CC3)C2)c1 (stereo not drawn) [Example 4, 2-{[4-(3,4-dichlorophenoxy)piperidin-1-yl]methyl}-4-[3-(methylsulfonyl)benzoyl]morpholine]	
7.94	O=C(c1c[nH]c(=O)c2ccccc12)N1CCO[C@H](CN2CCC(Oc3ccc(Cl)c(Cl)c3)CC2)C1 [Example 73]	> 75
12.6	O=C(c1cn2cc(F)ccc2n1)N1CCOC(CN2CCC(Oc3ccc(Cl)c(Cl)c3)CC2)C1 (stereo not drawn) [Example 3, 2-[(2-{[4-(3,4-dichlorophenoxy)piperidin-1-yl]methyl}morpholin-4-yl)carbonyl]-6-fluoroimidazo[1,2-a]pyridine]	

SMILES	Ki (human H1 receptor) [nM]	inhibition at 1 µM (CCR3) [%]
CS(=O)(=O)c1cccc(C(=O)N2CCO[C@@H](CN3CCC(Oc4ccc(Cl)c(Cl)c4)CC3)C2)c1 [Example 5, (2S)-2-{[4-(3,4-Dichlorophenoxy)piperidin-1-yl]methyl}-4-[3-(methylsulfonyl)benzoyl]morpholine]	20	> 75
